Source: patent US8501754B2, “Quinazolinamide derivatives” (MERCK PATENT GmbH, priority 2007, dated 2013)

target: Recombinant human HSP90a (Homo sapiens, UniProt P07900); experiment: radioligand filter binding test ([3H]17AAG competition) for HSP90 inhibition; details: competition with [3H]17AAG 0.08 μM, HSP90 1.5 μg/assay, 22° C., 30 min
Description: Test Method for the Measurement of HSP90 Inhibitors
The binding of geldanamycin or 17-allylamino-17-demethoxygeldanamycin (17AAG) to HSP90 and competitive inhibition thereof can be utilized in order to determine the inhibitory activity of the compounds according to the invention (Carreras et al. 2003, Chiosis et al. 2002).
In the specific case, a radioligand filter binding test is used. The radioligand used here is tritium-labelled 17-allylaminogeldanamycin, [3H]17AAG. This filter binding test allows a targeted search for inhibitors which interfere with the ATP binding site.
Recombinant human HSP90a (E. coli expressed, 95% purity);
[3H]17AAG (17-allylaminogeldanamycin, [allylamino-2,3-^3H. Specific activity: 1.11×10^12 Bq/mmol (Moravek, MT-1717);
HEPES filter buffer (50 mM HEPES, pH 7.0, 5 mM MgCl2, BSA 0.01%) Multiscreen FB (1 μm) filter plate (Millipore, MAFBNOB 50).
The 96-well microtitre filter plates are firstly irrigated and coated with 0.1% of polyethylenimine.
The test is carried out under the following conditions:
Reaction temperature 22° C.
Reaction time: 30 min., shaking at 800 rpm
50 mM HEPES HCl, pH 7.0, 5 mM MgCl2, 0.01% (w/v) of BSA
At the end of the reaction, the supernatant in the filter plate is removed by suction with the aid of a vacuum manifold (Multiscreen Separation System, Millipore), and the filter is washed twice.
The filter plates are then measured in a beta counter (Microbeta, Wallac) with scintillator (Microscint 20, Packard).
“% of control” is determined from the “counts per minutes” values, and the IC-50 value of a compound is calculated therefrom.

IC50	Compound
1 to 10 µM	2-Amino-4-propylethylcarbamoylquinazoline [Compound A11]
> 10 µM	CNC(=O)c1nc(N)nc2ccccc12 [Compound A1, 2-amino-4-methylcarbamoylquinazoline]
> 10 µM	CN(C)C(=O)c1nc(N)nc2ccccc12 [Compound A5, 2-Amino-4-dimethylcarbamoylquinazoline]
> 10 µM	CCN(CC)C(=O)c1nc(N)nc2ccccc12 [Compound A7, 2-Amino-4-diethylcarbamoylquinazoline]
> 10 µM	C#CCCNC(=O)c1nc(N)nc2ccccc12 [Compound A19, 2-Amino-4-propargylmethylcarbamoylquinazoline]
1 to 10 µM	Nc1nc(C(=O)Nc2ccccc2-c2ccccc2)c2ccccc2n1 [Compound A46]
1 to 10 µM	Nc1nc(C(=O)Nc2cccc3cccnc23)c2ccccc2n1 [Compound A48]
1 to 10 µM	Nc1nc(C(=O)Nc2cccc3c2CCCC3)c2ccccc2n1 [Compound A50]
> 10 µM	COc1ccc(Cl)cc1CN(C)C(=O)c1nc(N)nc2ccccc12 [Compound A72, 2-Amino-4-[(3-chloro-6-methoxybenzyl)methylcarbamoyl]quinazoline]
> 10 µM	CN(Cc1ccc(F)cc1)C(=O)c1nc(N)nc2ccccc12 [Compound A73, 2-Amino-4-[(4-fluorobenzyl)methylcarbamoyl]quinazoline]
1 to 10 µM	CCN(CC)C(=O)c1nc(N)nc2ccc(C)cc12 [Compound A77, 2-Amino-6-methyl-4-diethylcarbamoylquinazoline]
1 to 10 µM	CCc1ccc2nc(N)nc(C(=O)N3Cc4ccc(O)cc4C3)c2c1 [Compound A95, 2-Amino-6-ethyl-4-(5-hydroxy-1,3-dihydroisoindol-2-ylcarbonyl)quinazoline]
0.01 to 1 µM	CCc1ccc2nc(N)nc(C(=O)N3Cc4ccc(Br)cc4C3)c2c1 [Compound A96, 2-Amino-6-ethyl-4-(5-bromo-1,3-dihydroisoindol-2-ylcarbonyl)quinazoline]
0.01 to 1 µM	CCc1ccc2nc(N)nc(C(=O)N3Cc4ccccc4C3)c2c1 [Compound A97, 2-Amino-6-ethyl-4-(1,3-dihydroisoindol-2-ylcarbonyl)quinazoline]
1 to 10 µM	CCc1ccc2nc(N)nc(C(=O)N(CC)CC)c2c1 [Compound A98, 2-Amino-6-ethyl-4-diethylcarbamoylquinazoline]
1 to 10 µM	CC(C)c1ccc2nc(N)nc(C(=O)N3Cc4ccc(Br)cc4C3)c2c1 [Compound A117, 2-Amino-6-isopropyl-4-(5-bromo-1,3-dihydroisoindol-2-ylcarbonyl)quinazoline]
1 to 10 µM	CC(C)c1ccc2nc(N)nc(C(=O)N3Cc4ccccc4C3)c2c1 [Compound A118, 2-Amino-6-isopropyl-4-(1,3-dihydroisoindol-2-ylcarbonyl)quinazoline]
1 to 10 µM	Nc1nc(C(=O)N2Cc3ccccc3C2)c2cc(Br)ccc2n1 [Compound A125, 2-Amino-6-bromo-4-(1,3-dihydroisoindol-2-ylcarbonyl)quinazoline]
1 to 10 µM	CCN(CC)C(=O)c1nc(N)nc2ccc(-c3ccccc3)cc12 [Compound A138, 2-Amino-6-phenyl-4-diethylcarbamoylquinazoline]
> 10 µM	CCNC(=O)c1ccc2nc(N)nc(C(=O)N(CC)CC)c2c1 [Compound A140, 2-Amino-6-ethylcarbamoyl-4-diethylcarbamoylquinazoline]
0.01 to 1 µM	Nc1nc(C(=O)N2Cc3ccccc3C2)c2cc(-c3ccccc3OC(F)(F)F)ccc2n1 [Compound A240]
0.01 to 1 µM	Nc1nc(C(=O)N2Cc3ccccc3C2)c2cc(-c3ccccc3C(F)(F)F)ccc2n1 [Compound A262]
0.01 to 1 µM	NC(=O)c1ccccc1-c1ccc2nc(N)nc(C(=O)N3Cc4ccccc4C3)c2c1 [Compound A310]
0.01 to 1 µM	N#Cc1ccccc1-c1ccc2nc(N)nc(C(=O)N3Cc4ccccc4C3)c2c1 [Compound A328]
0.01 to 1 µM	Nc1nc(C(=O)N2Cc3ccccc3C2)c2cc(-c3ccccc3O)ccc2n1 [Compound A335, [2-amino-6-(2-hydroxyphenyl)quinazolin-4-yl]-(1,3-dihydroisoindol-2-yl)methanone]
0.01 to 1 µM	N#CCc1ccccc1-c1ccc2nc(N)nc(C(=O)N3Cc4ccccc4C3)c2c1 [Compound A344a]

IC50	Compound
0.01 to 1 µM	N#CCc1cccc(-c2ccc3nc(N)nc(C(=O)N4Cc5ccccc5C4)c3c2)c1 [Compound A919, 2-Amino-6-(3-cyanomethylphenyl)-4-(1,3-dihydroisoindol-2-ylcarbonyl)quinazoline]
1 to 10 µM	Nc1nc(C(=O)N2Cc3ccccc3C2)c2cc(-c3cc4ccccc4o3)ccc2n1 [Compound A921, 2-Amino-6-(benzofuran-2-yl)-4-(1,3-dihydroisoindol-2-ylcarbonyl)quinazoline]
0.01 to 1 µM	Nc1nc(C(=O)N2Cc3ccccc3C2)c2cc(-c3ccncc3)ccc2n1 [Compound A922, 2-Amino-6-(pyridin-4-yl)-4-(1,3-dihydroisoindol-2-ylcarbonyl)quinazoline]
1 to 10 µM	Nc1nc(C(=O)N2Cc3ccccc3C2)c2cc(-c3ccncc3)ccc2n1 [Compound A923, 2-Amino-6-(pyridin-4-yl)-4-(1,3-dihydroisoindol-2-ylcarbonyl)quinazoline]
0.01 to 1 µM	CCc1ccccc1-c1ccc2nc(N)nc(C(=O)N3Cc4ccccc4C3)c2c1 [Compound A924, 2-Amino-6-(2-ethylphenyl)-4-(1,3-dihydroisoindol-2-ylcarbonyl)quinazoline]
1 to 10 µM	Nc1nc(C(=O)N2Cc3ccccc3C2)c2cc(-c3cccc(O)c3)ccc2n1 [Compound A925, 2-Amino-6-(3-hydroxyphenyl)-4-(1,3-dihydroisoindol-2-ylcarbonyl)quinazoline]
0.01 to 1 µM	CCN(CC)C(=O)c1cccc(-c2ccc3nc(N)nc(C(=O)N4Cc5ccccc5C4)c3c2)c1 [Compound A931]
0.01 to 1 µM	CNCc1ccccc1-c1ccc2nc(N)nc(C(=O)N3Cc4ccccc4C3)c2c1 [Compound A933]
1 to 10 µM	NCc1ccccc1-c1ccc2nc(N)nc(C(=O)N3Cc4ccccc4C3)c2c1 [Compound A936]
0.01 to 1 µM	Nc1nc(C(=O)N2Cc3ccccc3C2)c2cc(N3CCN(C(=O)OCc4ccccc4)CC3)ccc2n1 [Compound A939]
> 10 µM	CN(C)CCCNc1ccc2nc(N)nc(C(=O)N3Cc4ccccc4C3)c2c1 [Compound A940]
1 to 10 µM	CN1CCN(c2ccc3nc(N)nc(C(=O)N4Cc5ccccc5C4)c3c2)CC1 [Compound A941]
0.01 to 1 µM	Nc1nc(C(=O)N2Cc3ccccc3C2)c2cc(Oc3ccccc3)ccc2n1 [Compound A946]
0.01 to 1 µM	Nc1nc(C(=O)N2Cc3ccccc3C2)c2cc(NC3CCCCC3)ccc2n1 [Compound A949]
1 to 10 µM	Nc1nc(C(=O)N2Cc3ccccc3C2)c2cc(NCc3ccccc3)ccc2n1 [Compound A950]
1 to 10 µM	Nc1nc(C(=O)N2Cc3ccccc3C2)c2cc(NC3CCC(O)CC3)ccc2n1 (stereo not shown) [Compound A951]
0.01 to 1 µM	Nc1nc(C(=O)N2Cc3ccccc3C2)c2cc(C#CCO)ccc2n1 [Compound A964, 2-amino-6-(3-hydroxyprop-1-ynyl)-4-(1,3-dihydroisoindol-2-ylcarbonyl)quinazoline]
0.01 to 1 µM	Nc1nc(C(=O)N2Cc3ccccc3C2)c2cc(-c3ccccc3C=O)ccc2n1 [Compound A969, 2-[2-amino-4-(1,3-dihydroisoindole-2-carbonyl)quinazolin-6-yl]benzaldehyde]
0.01 to 1 µM	CN1CCN(Cc2ccccc2-c2ccc3nc(N)nc(C(=O)N4Cc5ccccc5C4)c3c2)CC1 [Compound A970, {2-amino-6-[2-(4-methylpiperazin-1-ylmethyl)phenyl]quinazolin-4-yl}-(1,3-dihydroisoindol-2-yl)methanone]
0.01 to 1 µM	Nc1nc(C(=O)N2Cc3ccccc3C2)c2cc(-c3ccccc3CN3CCNCC3)ccc2n1 [Compound A971]
0.01 to 1 µM	Nc1nc(C(=O)N2Cc3ccccc3C2)c2cc(-c3ccccc3CNCCO)ccc2n1 [Compound A972]
0.01 to 1 µM	CN(C)CCNCc1ccccc1-c1ccc2nc(N)nc(C(=O)N3Cc4ccccc4C3)c2c1 [Compound A973]
0.01 to 1 µM	Nc1nc(C(=O)N2Cc3ccccc3C2)c2cc(-c3ccccc3CN3CCOCC3)ccc2n1 [Compound A974]
0.01 to 1 µM	CN(C)Cc1ccccc1-c1ccc2nc(N)nc(C(=O)N3Cc4ccccc4C3)c2c1 [Compound A975]
0.01 to 1 µM	COCCNCc1ccccc1-c1ccc2nc(N)nc(C(=O)N3Cc4ccccc4C3)c2c1 [Compound A976]
1 to 10 µM	Nc1nc(C(=O)N2Cc3ccccc3C2)c2cc(-c3ccccc3CNC3CCC(O)CC3)ccc2n1 (stereo not shown) [Compound A977]

Compound	IC50
CCN(C)C(=O)c1nc(N)nc2ccccc12 [Compound A6, 2-Amino-4-ethylmethylcarbamoylquinazoline]	> 10 µM
CC(C)N(C)C(=O)c1nc(N)nc2ccccc12 [Compound A8, 2-Amino-4-isopropylmethylcarbamoylquinazoline]	> 10 µM
CCCN(C)C(=O)c1nc(N)nc2ccccc12 [Compound A10, 2-Amino-4-propylmethylcarbamoylquinazoline]	> 10 µM
